Results on 12 compounds are retold here after patent US7491794B2, “Macrocyclic compounds as inhibitors of viral replication” (Intermune, Inc., priority 2003, dated 2009).

Test [1] concerns HCV sub-genomic replicon, GS4.3. The experiment in a line: Quantitation by ELISA of NPTII in the HCV sub-genomic replicon, GS4.3, Section B. Type of test: cell-based. Particulars: Hepatitis C virus; GS4.3 cells, 72 h incubation; read-out: Replicon EC50. An outline of the steps: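 NPTII marker protein in lysates was quantified by ELISA read at 450 nm after 72 h inhibitor exposure (3-fold series, final DMSO 1%, G418-free medium) of HuH-7 cells stably harbouring the subgenomic HCV replicon. Values relative to DMSO-treated controls; 4-parameter curves gave EC50.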
For orientation: In an ELISA, binding on a coated surface is turned into a signal by an enzyme label.

Test [2] deals with T1, NS3-NS4A protease (Hepatitis C virus genotype 1a, UniProt P27958).
T1 construct: Recombinant E. coli or Baculovirus full-length NS3 was diluted to 3.33 μM with assay buffer; made in house; host or cells: E. coli or baculovirus (BV) system
T1 sequence (P27958 1027-1657): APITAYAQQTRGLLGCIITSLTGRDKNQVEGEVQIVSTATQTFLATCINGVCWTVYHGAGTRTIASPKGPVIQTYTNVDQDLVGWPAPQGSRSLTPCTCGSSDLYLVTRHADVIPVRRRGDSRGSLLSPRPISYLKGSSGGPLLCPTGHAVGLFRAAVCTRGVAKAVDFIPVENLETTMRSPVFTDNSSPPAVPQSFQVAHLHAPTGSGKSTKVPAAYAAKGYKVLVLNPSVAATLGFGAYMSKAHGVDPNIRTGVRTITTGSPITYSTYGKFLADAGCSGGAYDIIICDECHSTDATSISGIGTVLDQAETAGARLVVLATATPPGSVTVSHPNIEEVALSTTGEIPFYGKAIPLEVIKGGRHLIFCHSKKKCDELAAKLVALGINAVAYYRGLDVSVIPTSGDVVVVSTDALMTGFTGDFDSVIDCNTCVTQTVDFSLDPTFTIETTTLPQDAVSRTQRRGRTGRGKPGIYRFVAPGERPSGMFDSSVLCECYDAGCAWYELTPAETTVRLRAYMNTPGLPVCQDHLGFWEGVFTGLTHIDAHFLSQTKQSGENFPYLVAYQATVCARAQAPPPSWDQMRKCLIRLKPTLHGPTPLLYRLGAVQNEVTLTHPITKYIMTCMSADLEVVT
The experiment in a line: NS3-NS4A protease assay (NS3 inhibition assay, RETS1 substrate), Section B. It is filed as biochemical. The gist of the method: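 Kinetic fluorescence read (335 nm excitation, 495 nm emission, 30 min) of RETS1 cleavage by NS3/NS4A-2 complex, 2 nM E. coli or 3 nM baculovirus NS3, after 10 min room-temperature compound pre-incubation. Four-parameter-fit IC50s converted to Ki by Cheng–Prusoff, Ki=IC50/(1+[S]/Km).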

The term EC50 denotes the concentration needed to bring the measured effect to its halfway point. What is called IC50 is the point on the concentration scale where inhibition reaches its midpoint.

Where two headings read alike, the source gives them in different places.

Take `O=C(N[C@H]1CCCCC/C=C\[C@@H]2C[C@@]2(C(=O)NS(=O)(=O)C2CC2)NC(=O)[C@@H]2C[C@@H](OC(=O)N3CCc4ccccc4[C@H]3CN3CCCCC3)CN2C1=O)OC1CCCC1` [AR00320557, (1S,4R,6S,14S,18R)-1-Piperidin-1S-ylmethyl-3,4-dihydro-1H-isoquinoline-2-carboxylic acid 14-cyclopentyloxycarbonylamino-4-cyclopropanesulfonylaminocarbonyl-2,15-dioxo-3,16-diaza-tricyclo[14.3.0.0^4,6]nonadec-7-en-18-yl ester]: in test [1], the concentration for a half-maximal effect (EC50) is < 0.1 µM. Further, the IC50 in test [2] (read-out: NS3-NS4A IC50) was < 0.1 µM.
Turning to `O=C(N[C@H]1CCCCC/C=C\[C@@H]2C[C@@]2(C(=O)NS(=O)(=O)C2CC2)NC(=O)[C@@H]2C[C@@H](OC(=O)N3Cc4ccc(Cl)cc4C3)CN2C1=O)OC1CCCC1` [AR00334218, (1S,4R,6S,14S,18R)-5-Chloro-1,3-dihydro-isoindole-2-carboxylic acid 14-cyclopentyloxycarbonylamino-4-cyclopropanesulfonylaminocarbonyl-2,15-dioxo-3,16-diaza-tricyclo[14.3.0.0^4,6]nonadec-7-en-18-yl ester], the concentration for a half-maximal effect (EC50) in test [1] was < 0.1 µM. In addition, the 50% inhibitory concentration (IC50) in test [2] (read-out: NS3-NS4A IC50) is < 0.1 µM.
In the case of `CC(C)(C)NC(=O)N[C@H]1CCCCC/C=C\[C@@H]2C[C@@]2(C(=O)O)NC(=O)[C@@H]2C[C@@H](OC(=O)N3Cc4ccc(Cl)cc4C3)CN2C1=O` [AR00320449, (1S,4R,6S,14S,18R)-14-(3-tert-Butyl-ureido)-18-(5-chloro-1,3-dihydro-isoindole-2-carbonyloxy)-2,15-dioxo-3,16-diaza-tricyclo[14.3.0.0^4,6]nonadec-7-ene-4-carboxylic acid], the half-maximal effective concentration (EC50) in test [1] is < 10 µM. In test [2] (read-out: NS3-NS4A IC50), the IC50 is < 0.1 µM.
For the compound `Cc1nc(-c2ccc3c(c2)CN(C(=O)O[C@@H]2C[C@H]4C(=O)N[C@]5(C(=O)NS(=O)(=O)C6CC6)C[C@H]5/C=C\CCCCC[C@H](NC(=O)OC(C)(C)C)C(=O)N4C2)C3)cs1` [AR00364989, (1S,4R,6S,14S,18R)-5-(2-Methyl-thiazol-4-yl)-1,3-dihydro-isoindole-2-carboxylic acid 14-tert-butoxycarbonylamino-4-cyclopropanesulfonylaminocarbonyl-2,15-dioxo-3,16-diaza-tricyclo[14.3.0.0^4,6]nonadec-7-en-18-yl ester], the EC50 in test [1] is < 0.1 µM. For the same compound, the half-maximal inhibitory concentration (IC50) in test [2] (read-out: NS3-NS4A IC50) is < 0.1 µM.
For the compound `CC(C)(C)OC(=O)N[C@H]1CCCCC/C=C\[C@@H]2C[C@@]2(C(=O)NS(=O)(=O)C2CC2)NC(=O)[C@@H]2C[C@@H](OC(=O)N3Cc4ccc(C#N)cc4C3)CN2C1=O` [AR00365082, (1S,4R,6S,14S,18R)-5-Cyano-1,3-dihydro-isoindole-2-carboxylic acid 14-tert-butoxycarbonylamino-4-cyclopropanesulfonylaminocarbonyl-2,15-dioxo-3,16-diaza-tricyclo[14.3.0.0^4,6]nonadec-7-en-18-yl ester], the 50% effective concentration (EC50) in test [1] was < 1 µM. Also, in test [2] (read-out: NS3-NS4A IC50), the IC50 is < 0.1 µM.
`O=C(N[C@H]1CCCCC/C=C\[C@@H]2C[C@@]2(C(=O)O)NC(=O)[C@@H]2C[C@@H](OC(=O)N3Cc4ccccc4C3)CN2C1=O)OCCF` [AR00320076, (1S,4R,6S,14S,18R)-18-(1,3-Dihydro-isoindole-2-carbonyloxy)-2,15-dioxo-14-(2-fluoro-ethoxycarbonylamino)-3,16-diaza-tricyclo[14.3.0.0^4,6]nonadec-7-ene-4-carboxylic acid]: the 50% effective concentration (EC50) in test [1] is < 10 µM. Moreover, the IC50 in test [2] (read-out: NS3-NS4A IC50) was < 1 µM.
As for `CC(C)(C)OC(=O)N[C@H]1CCCCC/C=C\[C@@H]2C[C@@]2(C(=O)O)NC(=O)[C@@H]2C[C@@H](OC(=O)N3CCc4nc(Nc5ccccc5)sc4C3)CN2C1=O` [AR00304000, (1S,4R,6S,14S,18R)-14-tert-Butoxycarbonylamino-2,15-dioxo-18-(2-phenylamino-6,7-dihydro-4H-thiazolo[5,4-c]pyridine-5-carbonyloxy)-3,16-diaza-tricyclo[14.3.0.0^4,6]nonadec-7-ene-4-carboxylic acid], in test [1], the EC50 was < 10 µM. For the same compound, the IC50 in test [2] (read-out: NS3-NS4A IC50) was < 1 µM.
Take `CC1CN(C(=O)O[C@@H]2C[C@H]3C(=O)N[C@]4(C(=O)NS(=O)(=O)C5CC5)C[C@H]4/C=C\CCCCC[C@H](NC(=O)NC(C)(C)C)C(=O)N3C2)Cc2ccccc21` (stereo partly drawn) [AR00314656, (1S,4R,6S,14S,18R)-4-Methyl-3,4-dihydro-1H-isoquinoline-2-carboxylic acid 14-(3-tert-butyl-ureido)-4-cyclopropanesulfonylaminocarbonyl-2,15-dioxo-3,16-diaza-tricyclo[14.3.0.0^4,6]nonadec-7-en-18-yl ester]: the half-maximal effective concentration (EC50) in test [1] is < 0.1 µM. Also, the IC50 in test [2] (read-out: NS3-NS4A IC50) was < 0.1 µM.
Take `O=C(N[C@H]1CCCCC/C=C\[C@@H]2C[C@@]2(C(=O)NS(=O)(=O)C2CC2)NC(=O)[C@@H]2C[C@@H](OC(=O)N3Cc4ccccc4C3)CN2C1=O)O[C@H]1CCOC1` [AR00320080, (1S,4R,6S,14S,18R)-1,3-Dihydro-isoindole-2-carboxylic acid 4-cyclopropanesulfonylaminocarbonyl-2,15-dioxo-14-(tetrahydro-furan-3S-yloxycarbonylamino)-3,16-diaza-tricyclo[14.3.0.0^4,6]nonadec-7-en-18-yl ester]: in test [1], the concentration giving a half-maximal response (EC50) is < 1 µM. The IC50 in test [2] (read-out: NS3-NS4A IC50) is < 0.1 µM.
For the compound `O=C(N[C@H]1CCCCC/C=C\[C@@H]2C[C@@]2(C(=O)NS(=O)(=O)C2CC2)NC(=O)[C@@H]2C[C@@H](OC(=O)N3Cc4ccccc4C3)CN2C1=O)O[C@@H]1CCOC1` [AR00320079, (1S,4R,6S,14S,18R)-1,3-Dihydro-isoindole-2-carboxylic acid 4-cyclopropanesulfonylaminocarbonyl-2,15-dioxo-14-(tetrahydro-furan-3-yloxycarbonylamino)-3,16-diaza-tricyclo[14.3.0.0^4,6]nonadec-7-en-18-yl ester], in test [1], the EC50 is < 0.1 µM. Further, the half-maximal inhibitory concentration (IC50) in test [2] (read-out: NS3-NS4A IC50) is < 0.1 µM.
Consider `CC(C)(C)OC(=O)N[C@H]1CCCCC/C=C\[C@@H]2C[C@@]2(C(=O)NS(C)(=O)=O)NC(=O)[C@@H]2C[C@@H](OC(=O)N3Cc4ccccc4C3)CN2C1=O` [AR00333803, (1S,4R,6S,14S,18R)-1,3-Dihydro-isoindole-2-carboxylic acid 14-tert-butoxycarbonylamino-4-methanesulfonylaminocarbonyl-2,15-dioxo-3,16-diaza-tricyclo[14.3.0.0^4,6]nonadec-7-en-18-yl ester], for which the concentration for a half-maximal effect (EC50) in test [1] was < 1 µM. The concentration for half-maximal inhibition (IC50) in test [2] (read-out: NS3-NS4A IC50) is < 0.1 µM.
With `O=C(N[C@H](C(=O)N[C@H]1CCCCC/C=C\[C@@H]2C[C@@]2(C(=O)NS(=O)(=O)C2CC2)NC(=O)[C@@H]2C[C@@H](OC(=O)N3Cc4cccc(F)c4C3)CN2C1=O)C1CCCCC1)c1cnccn1` [AR00340303, (1S,4R,6S,14S,18R)-4-Fluoro-1,3-dihydro-isoindole-2-carboxylic acid 14-{2-cyclohexyl-2-[(pyrazine-2-carbonyl)-amino]-acetylamino}-4-cyclopropanesulfonylaminocarbonyl-2,15-dioxo-3,16-diaza-tricyclo[14.3.0.0^4,6]nonadec-7-en-18-yl ester], in test [1], the half-maximal effective concentration (EC50) was < 1 µM. For the same compound, the IC50 in test [2] is < 0.1 µM.
